Values of other authors as cited in US6100258A, “Aromatic amine compounds that antagonize the pain enhancing effects of prostaglandins” (Zeneca Limited, priority 1995, dated 2000).

In the case of `CC(=O)NNC(=O)N1Cc2ccccc2Oc2ccc(Cl)cc21` [SC-19220], the “block of the effect of PGE2” value (guinea pig ileum) is given as “blocks the effect of PGE2” and the “block of the effect of PGE2” value (dog fundus) is given as “blocks the effect of PGE2”.
